For 2 compounds, IC50 results are on record in ChEMBL document CHEMBL5050858, “Polyheterocyclic compounds as mettl3 inhibitors” (2021).

The experiment addresses METTL3/METTL14 (Homo sapiens, UniProt Q86U44). Description: Inhibition of full-length His-tagged METTL3 (unknown origin) coexpressed with full-length FLAG-tagged METTL14 (unknown origin) expressed in baculovirus expression system using 5'P-uacacucgaucuggacuaaagcugcuc-3' RNA as substrate pre-incubated for 10 mins and followed by substrate addition and measured after 60 mins by methyltransferase assay.

pIC50: −log10 of the molar value.

Sequence of METTL3/METTL14 (Q86U44 whole entry): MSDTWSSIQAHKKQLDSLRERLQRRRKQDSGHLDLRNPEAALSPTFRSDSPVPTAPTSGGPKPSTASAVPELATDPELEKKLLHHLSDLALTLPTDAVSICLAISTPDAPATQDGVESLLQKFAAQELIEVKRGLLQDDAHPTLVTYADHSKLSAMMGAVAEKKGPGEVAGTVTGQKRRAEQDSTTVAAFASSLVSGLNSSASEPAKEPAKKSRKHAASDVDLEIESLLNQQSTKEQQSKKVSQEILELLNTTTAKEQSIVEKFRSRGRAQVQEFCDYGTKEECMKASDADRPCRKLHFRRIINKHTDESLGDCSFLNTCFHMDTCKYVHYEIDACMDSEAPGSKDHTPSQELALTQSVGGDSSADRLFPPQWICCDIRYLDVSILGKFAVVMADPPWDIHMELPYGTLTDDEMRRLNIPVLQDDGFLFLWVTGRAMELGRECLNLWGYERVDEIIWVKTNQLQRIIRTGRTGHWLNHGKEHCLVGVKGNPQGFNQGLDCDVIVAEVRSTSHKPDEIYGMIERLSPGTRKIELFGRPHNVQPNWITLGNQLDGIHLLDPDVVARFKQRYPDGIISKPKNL
Sequence of METTL3/METTL14 (Q9HCE5 whole entry, further chain): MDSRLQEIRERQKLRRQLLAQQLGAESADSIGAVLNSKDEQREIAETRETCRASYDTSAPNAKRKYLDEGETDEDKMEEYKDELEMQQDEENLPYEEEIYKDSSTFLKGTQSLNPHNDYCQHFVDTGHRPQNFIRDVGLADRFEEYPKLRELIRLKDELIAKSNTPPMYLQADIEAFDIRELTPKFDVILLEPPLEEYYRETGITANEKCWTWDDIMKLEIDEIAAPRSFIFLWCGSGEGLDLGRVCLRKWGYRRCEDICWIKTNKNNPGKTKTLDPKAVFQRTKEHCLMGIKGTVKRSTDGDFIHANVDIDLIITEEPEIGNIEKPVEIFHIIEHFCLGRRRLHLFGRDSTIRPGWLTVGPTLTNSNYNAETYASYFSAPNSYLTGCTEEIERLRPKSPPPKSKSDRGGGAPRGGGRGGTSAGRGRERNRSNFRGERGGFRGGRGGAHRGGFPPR

The pIC50 is −log10 of the IC50, conventionally taken in molar units. The low end stands for a large IC50, the high end for a small IC50. In turn, `O=C(NCc1ccc2cc(CCN3CC4(CCC4)C3)[nH]c2c1)c1cc(=O)n2ccccc2n1` gave a pIC50 of 6.93.
As for `O=C(NCc1ccc2cc(CN3CC(C4CC4)C3)[nH]c2c1)c1cc(=O)n2ccccc2n1`, the figure is 8.03.
